In patent publication US20240109853A1 (Shanghai Yao Yuan Biotechnology Co., Ltd., priority 2020, published 2024):
Read-outs that look alike come from different tables or passages of the source.

Experiments:
ALPK1 = ALPK1 (Homo sapiens (Human), UniProt Q96QP1); assay: ALPK1 in vitro kinase assay (HTRF of TIFA phosphorylation); assay type: biochemical
[1] = system: ALPK1-dependent NFκB reporter gene activation in HEK293 cells stably expressing an NF-kB reporter (G9 cells); assay: NFκB gene reporter alkaline phosphatase assay; assay type: cell-based; conditions: read-out: NFkB assay IC50
Excerpt: In embodiments, a compound of Formula I, or a subembodiment described herein, is an inhibitor of ALPK1 as measured, for example, in an in vitro kinase assay, or an assay designed to measure the activation of downstream targets of ALPK1 pathway activation, for example NFkB transcriptional activation and the secretion of proinflammatory cytokines and chemokines, such as IL-8, which is also referred to as CXCL-8. In general, the computer program XL fit was used for data analysis, including non-linear regression analysis. The half maximal inhibitory concentration (IC50) was used as the measure of a compound's effectiveness in the assays. IC50 values were determined using the following logistic equation Y=min+(max−min)/(1+(X/IC50^−hillslpoe), where Y is the value at the compound concentration, X. The concentration response curve fitting was conducted using GraphPad Prism version 6.00 software.
An alkaline phosphatase reporter assay system was used to measure inhibition of ALPK1-dependent NFκB reporter gene activation. Briefly, HEK293 cells stably expressing an NF-kB reporter (referred to herein as “G9 cells”) were maintained in DMEM as described above. For the assay, cells were seeded into 96-well plates at a density of 10,000 cells/well in Freestyle™ 293 Expression Medium (ThermoFisher), and allowed to attach overnight. Cells were pretreated with serially diluted compounds for 30 min and then stimulated with D-glycero-D-manno-6-fluoro-heptose-1β-S-ADP. […] NFkB gene activation was detected using the chromogenic substrate, para-nitrophenyl phosphate (pNPP) according to the manufacturer's protocols (pNPP Phosphatase Assay, Beyotime Biotechnology).

Sequence of ALPK1 (Q96QP1 whole entry): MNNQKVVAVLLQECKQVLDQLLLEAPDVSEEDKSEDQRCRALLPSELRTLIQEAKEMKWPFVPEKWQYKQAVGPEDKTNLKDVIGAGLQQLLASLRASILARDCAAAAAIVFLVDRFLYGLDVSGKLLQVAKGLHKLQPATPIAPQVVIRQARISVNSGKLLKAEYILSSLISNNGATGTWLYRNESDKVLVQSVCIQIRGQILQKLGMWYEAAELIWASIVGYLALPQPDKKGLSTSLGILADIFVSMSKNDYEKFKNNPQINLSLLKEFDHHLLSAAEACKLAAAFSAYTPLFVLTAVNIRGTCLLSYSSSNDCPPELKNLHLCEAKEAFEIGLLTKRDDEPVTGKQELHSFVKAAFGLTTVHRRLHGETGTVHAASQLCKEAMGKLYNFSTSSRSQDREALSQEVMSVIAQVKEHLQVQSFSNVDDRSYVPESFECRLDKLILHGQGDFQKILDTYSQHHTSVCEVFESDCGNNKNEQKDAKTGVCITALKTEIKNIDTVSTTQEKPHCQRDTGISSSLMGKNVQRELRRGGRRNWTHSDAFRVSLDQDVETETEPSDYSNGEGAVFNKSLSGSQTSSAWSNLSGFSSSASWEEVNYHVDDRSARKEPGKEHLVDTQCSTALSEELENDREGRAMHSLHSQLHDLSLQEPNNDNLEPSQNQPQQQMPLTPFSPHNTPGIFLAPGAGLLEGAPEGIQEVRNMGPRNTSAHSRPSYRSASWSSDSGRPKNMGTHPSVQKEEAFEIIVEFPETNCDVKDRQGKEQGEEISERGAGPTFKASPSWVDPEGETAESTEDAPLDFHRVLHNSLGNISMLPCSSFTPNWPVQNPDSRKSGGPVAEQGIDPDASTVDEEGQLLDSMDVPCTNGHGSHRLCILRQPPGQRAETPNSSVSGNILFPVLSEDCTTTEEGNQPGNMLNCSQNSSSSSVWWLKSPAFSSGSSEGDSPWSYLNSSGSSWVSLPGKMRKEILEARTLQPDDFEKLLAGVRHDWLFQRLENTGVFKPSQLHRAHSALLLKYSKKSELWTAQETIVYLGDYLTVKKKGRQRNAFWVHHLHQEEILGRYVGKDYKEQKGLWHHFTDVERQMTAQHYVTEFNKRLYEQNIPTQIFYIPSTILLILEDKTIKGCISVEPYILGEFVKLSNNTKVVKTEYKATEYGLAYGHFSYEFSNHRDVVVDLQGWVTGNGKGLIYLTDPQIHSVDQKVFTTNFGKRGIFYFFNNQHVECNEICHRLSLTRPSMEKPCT

Row | Structure (SMILES) | IC50 (ALPK1) | IC50 ([1]; Homo sapiens, HEK293) | IC50 [1] | IC50 (ALPK1; ALPK1 2 nM, TIFA substrate, ADP-Heptose activator, HTRF readout)
1 | COc1ccc(C(C)(C)c2csc(NC(=O)NCc3ccc(C(=O)NC4CCN(C)CC4)cc3)n2)cc1 [Example A018, 4-((3-(4-(2-(4-methoxyphenyl)propan-2-yl)thiazol-2-yl)ureido)methyl)-N-(1-methylpiperidin-4-yl)benzamide] | 29 nM | 1280 nM |  | 
2 | COc1ccc(C(C)(C)c2csc(NC(=O)NCc3ccc(NC4CCN(C)CC4)nc3)n2)cc1 [Example A019, 1-(4-(2-(4-methoxyphenyl)propan-2-yl)thiazol-2-yl)-3-((6-((1-methylpiperidin-4-yl)amino)pyridin-3-yl)methyl)urea] | 32 nM | 1290 nM |  | 
3 | CC(C)(c1ccc(Br)cc1)c1csc(NC(=O)NCCF)n1 [Example A020, 1-(4-(2-(4-bromophenyl)propan-2-yl)thiazol-2-yl)-3-(2-fluoroethyl)urea] | 144 nM | 6790 nM |  | 
4 | COc1ccc(C(C)(C)c2csc(NC(=O)NCCF)n2)cc1 [Example A021, 1-(2-fluoroethyl)-3-(4-(2-(4-methoxyphenyl)propan-2-yl)thiazol-2-yl)urea] | 104 nM | 1390 nM |  | 
5 | COc1ccc(C(C)(C)c2csc(NC(=O)NCc3ccc(NCCO)nc3)n2)cc1 [Example A022, 1-((6-((2-hydroxyethyl)amino)pyri-din-3-yl)methyl)-3-(4-(2-(4-methoxyphenyl)propan-2-yl)thiazol-2-yl)urea] | 232 nM |  | 960 nM | 
6 | COc1ccc(C(C)(C)c2csc(NC(=O)NCc3ccc(N(C)CCO)nc3)n2)cc1 [Example A023, 1-((6-((2-hydroxyethyl)(methyl)a-mino)pyridin-3-yl)methyl)-3-(4-(2-(4-methoxyphenyl)propan-2-yl)thiazol-2-yl)urea] | 229 nM | 1320 nM |  | 
7 | C#CC(C)(c1ccc(Cl)cc1)c1csc(NC(=O)NCCC#N)n1 (stereo not shown) [Example A024, 1-(4-(2-(4-chlorophenyl)but-3-yn-2-yl)thiazol-2-yl)-3-(2-cyanoethyl)urea] | 13 nM | 1250 nM |  | 
8 | CC(C)(c1ccc(C2CC2)cc1)c1csc(NC(=O)NCc2ccc(N3CCNCC3)cc2)n1 [Example A025, 1-(4-(2-(4-cyclopropylphenyl)propan-2-yl)thiazol-2-yl)-3-(4-(piperazin-1-yl)benzyl)urea] | 334 nM | 8580 nM |  | 
9 | CC(C)(c1ccc(Br)cc1)c1csc(NC(=O)NCc2ccc(CN3CCNCC3)cc2)n1 [Example A026, 1-(4-(2-(4-bromophenyl)propan-2-yl)thiazol-2-yl)-3-(4-(piperazin-1-ylmethyl)benzyl)urea] | 117 nM | 1250 nM |  | 
10 | CC(C)(c1ccc(Br)cc1)c1csc(NC(=O)NCc2ccc(N3CCNCC3)cc2)n1 [Example A027, 1-(4-(2-(4-bromophenyl)propan--2 yl)thiazol-2-yl)-3-(4-(piperazin-1-yl)benzyl)urea] | 46 nM | 1450 nM |  | ~50 nM
11 | CC(C)(c1ccc(Br)cc1)c1csc(NC(=O)NCCCCN)n1 [Example A028, 1-(4-aminobutyl)-3-(4-(2-(4-bromophenyl)propan-2-yl)thiazol-2-yl)urea] | 53 nM | 2560 nM |  | 
12 | Cc1sc(NC(=O)NCc2ccc(N3CCNCC3)cc2)nc1C(C)(C)c1ccc(Br)cc1 [Example A030, 1-(4-(2-(4-bromophenyl)propan-2-yl)-5-methylthiazol-2-yl)-3-(4-(piperazin-1-yl)benzyl)urea] | 232 nM | 4110 nM |  | 
13 | CC(C)(c1ccc(Cl)c(F)c1)c1csc(NC(=O)NCc2ccc(N3CCNCC3)cc2)n1 [Example A031, 1-(4-(2-(4-chloro-3-fluorophenyl)propan-2-yl)thiazol-2-yl)-3-(4-(piperazin-1-yl)benzyl)urea] | 345 nM | 1450 nM |  | 
14 | CC(C)(c1ccc(Br)cc1)c1csc(NC(=O)NCc2ccc(N3CCC(N)C3)cc2)n1 (stereo not shown) [Example A032, 1-(4-(3-aminopyrrolidin-1-yl)benzyl)-3-(4-(2-(4-bromophenyl)propan-2-yl)thiazol-2-yl)urea] | 291 nM | 580 nM |  | 
15 | CC(C)(c1ccc(Br)cc1)c1csc(NC(=O)NCc2ccc(OCC(=O)N3CCNCC3)cc2)n1 [Example A033, 1-(4-(2-(4-bromophenyl)propan-2-yl)thiazol-2-yl)-3-(4-(2-oxo-2-(piperazin-1-yl)ethoxy)benzyl)urea] | 80 nM | 3190 nM |  | 
16 | CC(C)(c1ccc(Br)cc1)c1csc(NC(=O)NCc2ccc(OCCN3CCNCC3)cc2)n1 [Example A034, 1-(4-(2-(4-bromophenyl)propan-2-yl)thiazol-2-yl)-3-(4-(2-(piperazin-1-yl)ethoxy)benzyl)urea] | 114 nM | 730 nM |  | 
17 | CC(C)(c1ccc(Br)cc1)c1csc(NC(=O)NCc2ccc(OCCCN3CCNCC3)cc2)n1 [Example A035, 1-(4-(2-(4-bromophenyl)propan-2-yl)thiazol-2-yl)-3-(4-(3-(piperazin-1-yl)propoxy)benzyl)urea] | 52 nM | 2030 nM |  | 
18 | COc1ccc(C(C)(C)c2csc(NC(=O)NCc3cnc(N4CCNCC4)c(F)c3)n2)cc1 [Example A036, 1-((5-fluoro-6-(piperazin-1-yl)pyridin-3-yl)methyl)-3-(4-(2-(4-methoxyphenyl)propan-2-yl)thiazol-2-yl)urea] | 24 nM | 620 nM |  | 
19 | COc1ccc(C(C)(C)c2csc(NC(=O)NCc3ccc(CN4CCNCC4)c(F)c3)n2)cc1 [Example A037, 1-(3-fluoro-4-(piperazin-1-ylmethyl)benzyl)-3-(4-(2-(4-methoxyphenyl)propan-2-yl)thiazol-2-yl)urea] | 57 nM | 2510 nM |  | 
20 | CC(C)(c1ccc(Br)cc1)c1csc(NC(=O)NCc2cnc(N3CCNCC3)c(F)c2)n1 [Example A038, 1-(4-(2-(4-bromophenyl)propan-2-yl)thiazol-2-yl)-3-((5-fluoro-6-(piperazin-1-yl)pyridin-3-yl)methyl)urea] | 30 nM | 1660 nM |  | 
21 | CCC(C)(c1ccc(Br)cc1)c1csc(NC(=O)NCc2ccc(N3CCNCC3)cc2)n1 (stereo not shown) [Example A039, 1-(4-(2-(4-bromophenyl)butan-2-yl)thiazol-2-yl)-3-(4-(piperazin-1-yl)benzyl)urea] | 189 nM | 711 nM |  | 
22 | COc1ccc(C(C)(C)c2csc(NC(=O)NCc3cc(F)c(N4CCNCC4)c(F)c3)n2)cc1 [Example A040, 1-(3,5-difluoro-4-(piperazin-1-yl)benzyl)-3-(4-(2-(4-methoxyphenyl)propan-2-yl)thiazol-2-yl)urea] | 45 nM | 500 nM |  | 
23 | COc1ccc(C(C)(C)c2csc(NC(=O)NCc3ccc(NC4CCNCC4)cc3)n2)cc1 [Example A041, 1-(4-(2-(4-methoxyphenyl)propan-2-yl)thiazol-2-yl)-3-(4-(piperidin-4-ylamino)benzyl)urea] | 23 nM | 1860 nM |  | 
24 | COc1ccc(C(C)(C)c2csc(NC(=O)NCc3ccc(C(=O)NC4CCNCC4)cc3)n2)cc1 [Example A042, 4-((3-(4-(2-(4-methoxyphenyl)propan-2-yl)thiazol-2-yl)ureido)methyl)-N-(piperidin-4-yl)benzamide] | 15 nM | 1000 nM |  | 
25 | CC(c1ccc(Br)cc1)c1csc(NC(=O)NCc2ccc(N3CCNCC3)cc2)n1 (stereo not shown) [Example A044, 1-(4-(1-(4-bromophenyl)ethyl)thiazol-2-yl)-3-(4-(piperazin-1-yl)benzyl)urea] | 147 nM | 1110 nM |  | 
26 | O=C(NCc1ccc(N2CCNCC2)cc1)Nc1nc(C2(c3ccc(Br)cc3)CCCC2)cs1 [Example A045, 1-(4-(1-(4-bromophenyl)cyclopentyl)thiazol-2-yl)-3-(4-(piperazin-1-yl)benzyl)urea] | 24 nM | 1070 nM |  | 
27 | CC(C)(c1ccc(Cl)cc1)c1csc(NC(=O)NCc2ccc(N3CCNCC3)cc2)n1 [Example A046, 1-(4-(2-(4-chlorophenyl)propan-2-yl)thiazol-2-yl)-3-(4-(piperazin-1-yl)benzyl)urea] | 79 nM | 1060 nM |  | 
28 | CC(C)(c1ccc(F)cc1)c1csc(NC(=O)NCc2ccc(N3CCNCC3)cc2)n1 [Example A047, 1-(4-(2-(4-fluorophenyl)propan-2-yl)thiazol-2-yl)-3-(4-(piperazin-1-yl)benzyl)urea] | 167 nM | 2100 nM |  | 
29 | CC(C)(c1ccc(Br)cc1)c1csc(NC(=O)NCc2ccc(N3CCNCC3)cc2Cl)n1 [Example A048, 1-(4-(2-(4-bromophenyl)propan-2-yl)thiazol-2-yl)-3-(2-chloro-4-(piperazin-1-yl)benzyl)urea] | 138 nM | 1530 nM |  | 
30 | CC(C)(c1ccc(Br)cc1)c1csc(NC(=O)NCc2ccc(N3CCNCC3)c(C(F)(F)F)c2)n1 [Example A049, 1-(4-(2-(4-bromophenyl)propan-2-yl)thiazol-2-yl)-3-(4-(piperazin-1-yl)-3-(trifluoromethyl)benzyl) urea] | 119 nM | 800 nM |  | 
